Columns and labels:
[1] = system: candida; test: DNP hyperthermia, oral candidiasis (Example 2); assay type: in vivo, human
Experimental: Pretreatment protocol: all medications were stopped 2 weeks prior to treatment. The patient refused taking diazepam, placement of a Foley catheter and oxygen face mask. They dressed themself into a dry cold water immersion suit (Stearns, ISS-590I, Universal Adult) designed to prevent heat loss and modified for easy placement of physiologic monitors. Equipment for measurement of heart rate, temperature, carbon dioxide production and Kcal of heat produced were conducted as outlined in Example 1. An oral breathing tube was used to measure V02 from room air. Urine output was measured when the patient voluntarily urinated through a “Texas” catheter (superficial condom tightly fitted around the head of the penis with tubing connected to urine collection bag). The patient was informed that hyperthermia would be administered as tolerated by their stamina and monitored clinical parameters, not to exceed 5 hours, on a daily or every other day basis, for a total of 5 sessions.
Treatment procedure: Baseline reading for 5 minutes established an average V02 of 300 cc/min. An initial dose of 2 mg/kg of DNP was administered over a 2 minute period. V02 increased and stabilized at 15 minutes at 340-380 cc/min. An additional 2 mg/kg DNP infusion was given, the V02 increased and stabilized at 610-630 cc/min. […]

[2] = system: heat shock protein; test: DNP induction of autologous heat shock proteins; assay type: in vivo, human; conditions: after cessation of DNP
Experimental: DNP would be given orally at doses to increase the V02 from 1.5 to 5 times above normal per day for a period of 2-6 days or, as an infusion at doses that would increase V02 and core body temperatures no greater than 39° C. for periods of 5 to 6 hours or, intravenous doses of DNP alone, with vasopressors, or other short acting metabolic stimulators, that would increase V02 to equivalent core temperatures of 40-41° C. for periods of 15-30 minutes. Within 8-48 hours after cessation of DNP, the patient would have maximum heat shock protein production. Such DNP induced stress would improve clinical outcome by induction of cellular heat shock protein synthesis with protection of the patient's, organs, tissues and cells from subsequent ischemic surgical or traumatic procedures.

[3] = system: hepatitis C virus; test: DNP with interferon-alpha, chronic hepatitis C (Example 10); assay type: in vivo, human
Experimental: Pretreatment protocol: each evening prior to treatment the patient was instructed not to eat after 7 pm and dress in cotton clothes. Approximately 6 hours prior to intravenous DNP administration they were to be given 1.5 million units of subcutaneous interferon-alpha every 3rd day. Repeat blood work, including CBC and platelet count, AST, ALT, and hepatitis C-RNA levels would be initially obtained at 48 hours and weekly thereafter. No efforts were to be made to prevent body heat loss. A single intravenous line was placed with a 21-gauge interacath. Heart rate, rectal thermistor, and VO2 monitoring was conducted during therapy as outlined.
Treatment procedure: the patient presented themself for outpatient treatment and was given a subcutaneous dose of 1.5 million units of interferon-alpha. Approximately 6 hours thereafter, at 1 pm, a baseline VO2 recording of 5 minutes was 160 cc/min. They were infused with 1 mg/kg DNP over a 2 minute period. At 20 minutes, their VO2 increased and stabilized at approximately 210 cc/min. A second dose of 1 mg/kg DNP was infused and the VO2 peaked 20 minutes later at 250 cc/min. An additional dose of 2.0 mg/kg DNP was given 30 minutes following the second dose. […] The patient's rectal temperature increased and never exceeded 1.3° C. above their normal baseline. Two hours after their last dose of DNP, their VO2 declined to 280 cc/min. An additional 2 mg/kg dose of DNP was administered. The patients VO2 increased and stabilized 20 minutes thereafter to a level of 420 cc/min. […] Throughout treatment the patient was permitted to drink fluids ad libitum. […] The 5 day treatment protocol was repeated after a 2 day “DNP rest period”. This regimen was repeated times 3. Subcutaneous interferon-alpha was administered for a total of 10 weeks.

[4] = man and animals accidentally intoxicated; cited from earlier work
[5] = system: inner mitochondrial membrane; conditions: lowered from −180; cited from earlier work
[6] = system: glioma; test: DNP enhanced PET-FDG scan, glioma (Example 7); assay type: in vivo, human; parameters: key to metabolic grade of FDG uptake, selected target / metabolic grade, hypermetabolic component in the tumor area / metabolic grade, remaining viable tumor: I: FDG uptake less than contralateral white matter; II: uptake between the levels in contralateral white and gray matter; III: FDG uptake equal to or greater than in contralateral gray matter
Source text: Pretreatment protocol: three days prior to DNP dosing and repeat PET-FDG scan, the patient's dosage of phenyloin was increased from 100-mg three times daily to 200-mg three times a day. The same positron emission tomogram, a CTI-Siemens 933/08-12 which provides a 6.75-mm adjacent slices and in-plane spatial resolution (full-width at half maximum) of ˜5 mm, was to be used. The highest level of non to DNP stimulated FDG uptake in the tumor area was to be compared and qualitatively graded by two radiologists. Independently, each investigator was to visually evaluate the positron emission tomogram and use the following metabolic grading scale: I, FDG uptake less than contralateral white matter; II, uptake between the levels in contralateral white and gray matter; III, FDG uptake equal to or greater than in contralateral gray matter.
Diagnostic—treatment protocol: the patient was given a 300 mg capsule of DNP (approximately 4 mg/kg body weight) three hours prior to undergoing a PET-FDG scan. Forty minutes prior to the emission scan they were intravenously injected with a bolus of FDG according to standard methodology. Immediately prior to the 20-minute emission scan the patients VO2 uptake was 40% above that at baseline. The patients DNP/VO2 flow chart is FIG. 24.

[7] = system: Normal rat liver; test: reactive oxygen species formation in rat liver infused with DNP; conditions: upon cessation of uncoupling (FIG. 9)
[8] = DNP enhancement, one year after diagnosis and therapy

Question: With `O=[N+]([O-])c1ccc(O)c([N+](=O)[O-])c1` [DNP, 2,4-dinitrophenol] as the molecule, how does the oral candidiasis ([1]; 3rd day of therapy) read?
Answer: no evidence of oral candidiasis

Question: And the “improvement of oral candidiasis” value ([1]; immediately after the first treatment)?
Answer: 50%

Question: What about the “time to maximum heat shock protein production” value [2] of the same molecule?
Answer: 8 to 48 h

Question: And the ALT ([3]; 18 months after therapy)?
Answer: normalization

Question: And the HCV viral genome ([3]; 18 months after therapy)?
Answer: remained cleared from their bloodstream

Question: And the “decrease of hepatitis C-RNA viral load” value ([3]; after 48 hours, DNP with interferon-alpha)?
Answer: approximately 2 logs

Question: What about the “increase of alanine transaminase (ALT) levels” value ([3]; at 48 hours, elevated until week 3) of the same molecule?
Answer: 7 fold

Question: And the “increase of alkaline phosphatase levels” value ([3]; at 48 hours, pretreatment levels at day 7)?
Answer: 2 fold

Question: And the “CBC, bilirubin, and blood urea nitrogen (BUN)” value ([3]; during treatment)?
Answer: remained within normal limits

Question: What about the “further decrease of viral load” value ([3]; over the next 5 days) of the same molecule?
Answer: an additional log

Question: What about the HCV-RNA ([3]; week 2 and thereafter) of the same molecule?
Answer: undetectable

Question: And the hyperthermia [4]?
Answer: up to 49 °C

Question: What about the “inner mitochondrial membrane potential” value [5] of the same molecule?
Answer: −145 mV

Question: And the “DNP enhanced PET-FDG scan finding” value ([6]; 300 mg oral DNP, none without DNP)?
Answer: two areas of hypermetabolism

Question: And the “metabolic grade of FDG uptake, selected target” value ([6]; DNP enhanced PET-FDG scan)?
Answer: III

Question: And the “metabolic grade, hypermetabolic component in the tumor area” value [6, 8]?
Answer: II

Question: What about the “metabolic grade, remaining viable tumor” value [6, 8] of the same molecule?
Answer: I

Question: And the “formation of reactive oxygen species” value [7]?
Answer: threefold

— patent publication US7635722B1, “Chemical induced intracellular hyperthermia” (priority 1998, dated 2009)
